Assay: TG-DTA in dry air versus argon gas (oxidative degradation)
Settings: onset of caloric value difference between dry air and argon gas, dDTA/dT, FIG. 3(b)

Row | Compound | temperature at which oxidation reaction occurred
1 | CC(C)C(=O)C=C([O][Zr]([O]C(=CC(=O)C(C)C)C(C)C)([O]C(=CC(=O)C(C)C)C(C)C)[O]C(=CC(=O)C(C)C)C(C)C)C(C)C [Zr(DIBM)4, zirconium tetrakis[diisobutyrylmethanate]] | about 130 °C
2 | CC(C)(C)C(=O)C=C(O)C(C)(C)C.CC(C)(C)C(=O)C=C(O)C(C)(C)C.CC(C)(C)C(=O)C=C(O)C(C)(C)C.CC(C)(C)C(=O)C=C(O)C(C)(C)C.[Zr] [Zr(DPM)4, zirconium tetrakis[dipivaloylmethanate]] | about 280 °C

Source: US20050147754A1, “Zirconium complex useful in a CVD method and a thin film preparation method using the complex” (Saes Getters S.p.A., priority 2002, published 2005)
